Assays:
[1] = biological target: T1, Human immunodeficiency virus type 1 integrase (Human immunodeficiency virus 1, UniProt Q7ZJM1); assay: Inhibition of wild type HIV1 integrase strand transfer step
[2] = biological target: Human immunodeficiency virus type 1 integrase (Human immunodeficiency virus 1, UniProt Q7ZJM1, C280S/F185K); assay: Inhibition of soluble HIV1 integrase F185K/C280S mutant strand transfer step
[3] = biological target: Human immunodeficiency virus type 1 integrase (Human immunodeficiency virus 1, UniProt Q7ZJM1, C280S/F182K); assay: Inhibition of soluble HIV1 integrase F182K/ C280S mutant 3' processing step
[4] = biological target: T2, Human immunodeficiency virus type 1 integrase (Human immunodeficiency virus 1, UniProt Q7ZJM1, C130A); assay: Inhibition of mutant HIV1 integrase C130A mutant 3' processing step
T2 sequence (Q7ZJM1 entry or part of it C130A): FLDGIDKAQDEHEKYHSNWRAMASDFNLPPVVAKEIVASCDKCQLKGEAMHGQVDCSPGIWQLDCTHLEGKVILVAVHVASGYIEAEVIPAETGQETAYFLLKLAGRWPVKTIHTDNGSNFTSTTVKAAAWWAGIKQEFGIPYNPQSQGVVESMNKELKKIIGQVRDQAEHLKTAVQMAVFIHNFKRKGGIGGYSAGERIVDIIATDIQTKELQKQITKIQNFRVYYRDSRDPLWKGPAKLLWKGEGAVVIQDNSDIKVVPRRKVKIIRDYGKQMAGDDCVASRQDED

[5] = biological target: T2, Human immunodeficiency virus type 1 integrase; assay: Inhibition of HIV1 integrase C130A mutant strand transfer step
[6] = biological target: T1, Human immunodeficiency virus type 1 integrase; assay: Inhibition of wild type HIV1 integrase 3' processing step
[7] = biological target: T3, Human immunodeficiency virus type 1 integrase (Human immunodeficiency virus 1, UniProt Q7ZJM1, C130S); assay: Inhibition of HIV1 integrase C130S mutant 3' processing step
T3 sequence (Q7ZJM1 entry or part of it C130S): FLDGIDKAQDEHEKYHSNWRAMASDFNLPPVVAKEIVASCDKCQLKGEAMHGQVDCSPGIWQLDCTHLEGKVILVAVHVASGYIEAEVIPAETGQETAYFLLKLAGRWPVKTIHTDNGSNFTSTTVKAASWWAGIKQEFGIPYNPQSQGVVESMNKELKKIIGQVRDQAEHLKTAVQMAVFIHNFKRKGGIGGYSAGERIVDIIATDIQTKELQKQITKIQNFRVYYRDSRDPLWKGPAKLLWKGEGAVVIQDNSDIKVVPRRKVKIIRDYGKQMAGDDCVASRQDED

[8] = biological target: T3, Human immunodeficiency virus type 1 integrase; assay: Inhibition of HIV1 integrase C130S mutant strand transfer step

T1 sequence (Q7ZJM1 whole entry): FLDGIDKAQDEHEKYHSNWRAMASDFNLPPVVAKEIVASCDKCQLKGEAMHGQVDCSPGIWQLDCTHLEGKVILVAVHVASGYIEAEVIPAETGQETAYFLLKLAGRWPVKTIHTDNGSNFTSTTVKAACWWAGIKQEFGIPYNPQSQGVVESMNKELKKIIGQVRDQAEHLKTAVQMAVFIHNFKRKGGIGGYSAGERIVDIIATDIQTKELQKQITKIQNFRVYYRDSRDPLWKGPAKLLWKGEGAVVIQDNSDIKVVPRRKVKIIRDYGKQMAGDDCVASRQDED
Human immunodeficiency virus type 1 integrase (Human immunodeficiency virus 1, UniProt Q7ZJM1, C280S/F185K), sequence (Q7ZJM1 entry or part of it C280S/F185K): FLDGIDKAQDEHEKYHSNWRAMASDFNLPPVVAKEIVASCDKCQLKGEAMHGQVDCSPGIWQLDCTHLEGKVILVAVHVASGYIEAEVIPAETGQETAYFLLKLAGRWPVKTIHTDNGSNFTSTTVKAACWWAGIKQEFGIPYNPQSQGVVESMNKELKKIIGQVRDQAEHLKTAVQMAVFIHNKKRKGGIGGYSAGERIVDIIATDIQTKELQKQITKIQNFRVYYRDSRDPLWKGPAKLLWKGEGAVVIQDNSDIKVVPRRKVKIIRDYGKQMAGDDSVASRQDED

CC[C@H](C)[C@H](NC(=O)[C@H](CO)NC(=O)[C@H](CCC(=O)O)NC(=O)[C@@H](NC(=O)[C@@H](NC(=O)[C@@H](NC(=O)[C@H](CCCCN)NC(=O)[C@H](CCC(N)=O)NC(=O)[C@@H](NC(=O)[C@H](C)NC(=O)[C@H](CCC(=O)O)NC(=O)[C@@H](NC(=O)[C@H](CC(C)C)NC(=O)[C@H](CCC(N)=O)NC(=O)[C@@H](N)CCCCN)[C@@H](C)O)C(C)C)[C@@H](C)CC)[C@@H](C)O)[C@@H](C)O)C(=O)N[C@H](C(=O)N[C@H](C(=O)N[C@@H](Cc1c[nH]c2ccccc12)C(=O)NCC(=O)N[C@@H](CCCCN)C(=O)O)[C@@H](C)CC)C(C)C
IC50 [1]: 4 µM | IC50 [2]: 31 µM | IC50 [3]: 51 µM | IC50 [4]: 15 µM | IC50 [5]: 10 µM | IC50 [6]: 7 µM | IC50 [7]: 29 µM | IC50 [8]: 2 µM

CC[C@H](C)C(NC(=O)[C@H](CCC(=O)O)NC(=O)[C@H](CC(C)C)NC(=O)[C@H](CC(=O)O)NC(=O)[C@H](CO)NC(=O)CNC(=O)[C@@H](NC(=O)[C@H](Cc1ccc(O)cc1)NC(=O)[C@H](CC(C)C)NC(=O)[C@H](CC(=O)O)NC(=O)[C@H](CC(=O)O)NC(=O)[C@H](CCSC)NC(=O)[C@H](Cc1ccc(O)cc1)NC(=O)[C@H](CCC(N)=O)NC(=O)[C@H](Cc1ccc(O)cc1)NC(=O)[C@@H](NC(=O)[C@@H](NC(=O)[C@@H](NC(=O)[C@H](CC(=O)O)NC(=O)[C@@H]1CCCN1)[C@@H](C)CC)C(C)C)[C@@H](C)CC)C(C)C)C(=O)O (stereo not given in full)
IC50 [1]: 10 µM | IC50 [2]: 23 µM | IC50 [3]: 28 µM | IC50 [4]: 20 µM | IC50 [5]: 5 µM | IC50 [6]: 6 µM | IC50 [7]: 41 µM | IC50 [8]: 2 µM

CC[C@H](C)[C@H](NC(=O)[C@H](Cc1c[nH]c2ccccc12)NC(=O)[C@@H](NC(=O)[C@H](C)NC(=O)[C@H](CCC(N)=O)NC(=O)[C@H](Cc1c[nH]c2ccccc12)NC(=O)[C@H](Cc1ccc(O)cc1)NC(=O)[C@H](CCC(=O)O)NC(=O)[C@@H](NC(=O)[C@H](Cc1c[nH]c2ccccc12)NC(=O)[C@H](Cc1c[nH]c2ccccc12)NC(=O)[C@@H](NC(=O)[C@H](CCC(=O)O)NC(=O)[C@H](Cc1c[nH]c2ccccc12)NC(=O)[C@@H](NC(=O)[C@@H](N)CCC(=O)O)[C@@H](C)O)[C@@H](C)O)[C@@H](C)O)[C@@H](C)O)C(=O)N1CCC[C@H]1C(=O)N[C@@H](CCC(=O)O)C(=O)N[C@@H](Cc1c[nH]c2ccccc12)C(=O)N[C@@H](CCC(=O)O)C(=O)O
IC50 [1]: 2 µM | IC50 [2]: 9 µM | IC50 [3]: 13 µM | IC50 [4]: 25 µM | IC50 [5]: 5 µM | IC50 [6]: 6 µM | IC50 [7]: 126 µM | IC50 [8]: 27 µM

CC[C@H](C)[C@H](NC(=O)[C@H](CC(C)C)NC(=O)[C@H](CCC(N)=O)NC(=O)[C@H](CCC(=O)O)NC(=O)[C@@H](NC(=O)[C@@H](NC(=O)[C@H](CCC(N)=O)NC(=O)[C@H](CC(N)=O)NC(=O)[C@@H](NC(=O)[C@H](CC(C)C)NC(=O)[C@@H](N)CCC(=O)O)C(C)C)[C@@H](C)CC)[C@@H](C)CC)C(=O)N[C@@H](CCCCN)C(=O)N[C@@H](CCCCN)C(=O)N[C@@H](CCC(=O)O)C(=O)N[C@@H](CCCCN)C(=O)N[C@H](C(=O)N[C@@H](Cc1ccc(O)cc1)C(=O)N[C@@H](CC(C)C)C(=O)N[C@@H](C)C(=O)N[C@@H](Cc1c[nH]c2ccccc12)C(=O)O)C(C)C
IC50 [1]: 14 µM | IC50 [2]: 83 µM | IC50 [3]: 113 µM | IC50 [4]: 45 µM | IC50 [5]: 15 µM | IC50 [6]: 15 µM | IC50 [7]: 136 µM | IC50 [8]: 7 µM

CC[C@H](C)[C@H](NC(=O)CNC(=O)[C@H](CC(C)C)NC(=O)[C@H](C)NC(=O)[C@H](Cc1ccc(O)cc1)NC(=O)[C@H](CCC(N)=O)NC(=O)[C@H](CO)NC(=O)[C@H](CC(=O)O)NC(=O)[C@@H](NC(=O)[C@@H](NC(=O)[C@@H](NC(=O)[C@H](CC(N)=O)NC(=O)[C@@H](NC(=O)[C@H](CCC(=O)O)NC(=O)[C@H](CC(C)C)NC(=O)CNC(=O)[C@H](CO)NC(=O)[C@H](CC(=O)O)NC(=O)[C@H](CCC(N)=O)NC(=O)[C@@H](N)CC(C)C)C(C)C)[C@@H](C)CC)C(C)C)[C@@H](C)O)C(=O)O
IC50 [1]: 2 µM | IC50 [2]: 36 µM | IC50 [3]: > 167 µM | IC50 [4]: > 167 µM | IC50 [5]: 20 µM | IC50 [6]: 11 µM | IC50 [7]: 18 µM | IC50 [8]: 4 µM

Source: ChEMBL document CHEMBL1149523, “Inhibition of HIV-1 integrase activity by synthetic peptides derived from the HIV-1 HXB2 Pol region of the viral genome” (Bioorg Med Chem Lett, 2006)
